Experiments:
MCF-7 [1] = test: Cell division analysis, CFSE staining, flow cytometry; format: cell-based, human; design: key: ↑: induction; ↓: inhibition; ↔: no effect; conditions: MCF-7, IC50 for 72 h
Protocol: (§1) The cells were stained with CFSE (1 µM) in PBS containing 0.1% (v/v) FCS for 10 min. Afterwards, cells were washed with PBS, and then seeded with growth medium in 6-well plates. The plates were incubated for 24 h under standard culture conditions. […] Subsequently, the cells were detached using 0.5 mL of 0.05% (v/v) Trypsin–EDTA for 3 min at 37 °C. Then trypsin was deactivated by the addition of FCS-containing growth medium. The cell suspensions were collected, centrifuged for 3 min at 800 rpm, and the cell pellets were resuspended in fresh PBS. Finally, the samples were analyzed by using flow cytometry.

HCC1937 [2] = test: as above; format: cell-based, human; design: key: ↑: induction; ↓: inhibition; ↔: no effect; conditions: HCC1937, IC50 for 72 h
Protocol: as §1

MDA-MB-468 [3] = test: as above; format: cell-based, human; design: key: ↑: induction; ↓: inhibition; ↔: no effect; conditions: MDA-MB-468, IC50 for 72 h
Protocol: as §1

BT-474 [4] = test: as above; format: cell-based, human; design: key: ↑: induction; ↓: inhibition; ↔: no effect; conditions: BT-474, IC50 for 72 h
Protocol: as §1

MCF-7 [5] = test: NO production, DAF-FM staining, flow cytometry; format: cell-based, human; design: key: ↑: induction; ↓: inhibition; ↔: no effect; conditions: MCF-7, IC50 for 72 h
Protocol: (§2) Afterwards, the medium was discarded and the cells were stained with DAF-FM (5 µM) in RPMI1640 with 10% (v/v) FCS for 1 h at 37 °C. The stain was completed by additional incubation for 15 min with serum-free medium. The cells were then detached, re-suspended in PBS and analyzed by flow cytometry.

HCC1937 [6] = test: NO production, DAF-FM staining, flow cytometry; format: cell-based, human; design: key: ↑: induction; ↓: inhibition; ↔: no effect; conditions: HCC1937, IC50 for 72 h
Protocol: as §2

MDA-MB-468 [7] = test: NO production, DAF-FM staining, flow cytometry; format: cell-based, human; design: key: ↑: induction; ↓: inhibition; ↔: no effect; conditions: MDA-MB-468, IC50 for 72 h
Protocol: as §2

BT-474 [8] = test: NO production, DAF-FM staining, flow cytometry; format: cell-based, human; design: key: ↑: induction; ↓: inhibition; ↔: no effect; conditions: BT-474, IC50 for 72 h
Protocol: as §2

MCF-10A = test: CV cell viability assay on healthy breast cell line; format: cell-based; conditions: Homo sapiens, 72 h
Protocol: (§3) The cell lines were cultured in standard growth medium consisting of RPMI1640 medium supplemented with 10% (v/v) FCS, 1% (v/v) penicillin/streptomycin and 1% (v/v) glutamine[25]–[29]. Two additional cell lines were included in the study representing non-tumorigenic (“healthy”) breast cells, namely 184B5 and MCF10A. These cell lines were cultured using an Endopan 3 medium kit in accordance with the manufacturer’s instruction. For passaging and seeding, cells were treated as previously described. In brief, seeding was done in low density with 6 × 10^3 cells/100 µL in 96-well plates, and with 1.5 × 10^5 cells/1 mL in 6-well plates. […]
(§4) For initial testing of the cytotoxic effect of the available glycophymine compounds (Table S2), cells were treated with compound in three concentrations: 1, 10 and 50 µM. […] Subsequently, the cell viability was determined by using the crystal violet (CV) assay. […]
(§5) For CV assays, after 72 h treatment, the treatment medium was discarded from the 96-well plates, and the cells were washed using 50 µL of PBS. […] Finally, the absorbance was measured at 570 nm by using a SpectraMax M5 plate reader (Molecular Devices, California, USA) and at 670 nm as background wavelength. […] Based on that, IC50 values and standard deviations were calculated for each replicate individually.

184B5 = test: as above; format: cell-based; conditions: Homo sapiens, 72 h
Protocol: as §3, §4, §5

[9] = Monitoring of systemic toxicity in the 4T1 in vivo study (body mass, behavior, fur, food intake); design: species or system BALB/c mice; conditions: 5 and 20 mg/kg i.p.
Protocol: On day 6, the mice were assigned to the study groups using a stratified randomization approach, ensuring that the mean tumor volumes were as similar as possible across all groups. The control group was treated with 400 µL of vehicle solution, the low dose compound 19 group with 5 mg/kg in 400 µL of vehicle, and the high dose group with […] in 400 µL of vehicle. The vehicle was 4% (v/v) DMSO in PBS, and the administration route was intraperitoneal (i.p.). The animals were treated daily on days 6–10 (starting from the day when tumors became palpable), 13–17 and day 20. Animals were visually examined daily, and urine samples were collected on the first and last day of treatment and analyzed by Multistix urine test stripes (Siemens Healthineers, Erlangen, Germany). On day 21 of the experiment, the mice were sacrificed using cervical dislocation. Following the sacrifice, the tumor diameters were measured using a caliper. The tumor volume (V) was then calculated using the formula V = L*W^2*0.52[36], where L represents the longest diameter and W the shortest diameter of the tumor.

SMILES: O=c1[nH]c(Nc2ccc([N+](=O)[O-])cc2)nc2ccccc12 [Compound 19, 4′-nitro-9-aza-glycophymine]
- Proliferation (MCF-7 [1]): ↔
- Proliferation (HCC1937 [2]): ↓
- Proliferation (MDA-MB-468 [3]): ↔
- Proliferation (BT-474 [4]): ↓
- NO (MCF-7 [5]): ↑
- NO (HCC1937 [6]): ↑
- NO (MDA-MB-468 [7]): ↔
- NO (BT-474 [8]): ↑
- IC50 (MCF-10A): ~4 µM
- IC50 (184B5): ~4 µM
- acute systemic toxicity (body mass, behavioral changes, fur color and loss, food intake) [9]: absence of acute systemic toxicity

Reference: article PMC11568214, “The impact of 9-azaglycophymine and phenylguanidine derivatives on the proliferation of various breast cancer cell lines in vitro and in vivo” (Scientific Reports, 2024)
